The values below come from ChEMBL document CHEMBL4373688 (Medchemcomm, 2019).

The term IC50 denotes the point on the concentration scale where inhibition reaches its midpoint. Low values mean greater potency, high ones weaker potency.

The target of assay [1] is Vascular endothelial growth factor receptor 2 (Homo sapiens, UniProt P35968).
Description: Inhibition of human VEGFR2 (805 to 1171 residues) by ELISA
The target in assay [2] is Fibroblast growth factor receptor 3 (Homo sapiens, UniProt P22607). Kind of assay: biochemical. It counts as cell-based, Sf9.
Description: Inhibition of wild type His-tagged human FGFR3 (455 to 763 residues) expressed in Sf9 insect cells by ELISA
Another assay is filed under the species Homo sapiens. The experiment in a line: Selectivity ratio of IC50 for wild type His-tagged human FGFR3 (455 to 763 residues) expressed in Sf9 insect cells to IC50 for human VEGFR2 (805 to 1171 residues).

Chain of Fibroblast growth factor receptor 3 (P22607 whole entry, the tested form may be a part): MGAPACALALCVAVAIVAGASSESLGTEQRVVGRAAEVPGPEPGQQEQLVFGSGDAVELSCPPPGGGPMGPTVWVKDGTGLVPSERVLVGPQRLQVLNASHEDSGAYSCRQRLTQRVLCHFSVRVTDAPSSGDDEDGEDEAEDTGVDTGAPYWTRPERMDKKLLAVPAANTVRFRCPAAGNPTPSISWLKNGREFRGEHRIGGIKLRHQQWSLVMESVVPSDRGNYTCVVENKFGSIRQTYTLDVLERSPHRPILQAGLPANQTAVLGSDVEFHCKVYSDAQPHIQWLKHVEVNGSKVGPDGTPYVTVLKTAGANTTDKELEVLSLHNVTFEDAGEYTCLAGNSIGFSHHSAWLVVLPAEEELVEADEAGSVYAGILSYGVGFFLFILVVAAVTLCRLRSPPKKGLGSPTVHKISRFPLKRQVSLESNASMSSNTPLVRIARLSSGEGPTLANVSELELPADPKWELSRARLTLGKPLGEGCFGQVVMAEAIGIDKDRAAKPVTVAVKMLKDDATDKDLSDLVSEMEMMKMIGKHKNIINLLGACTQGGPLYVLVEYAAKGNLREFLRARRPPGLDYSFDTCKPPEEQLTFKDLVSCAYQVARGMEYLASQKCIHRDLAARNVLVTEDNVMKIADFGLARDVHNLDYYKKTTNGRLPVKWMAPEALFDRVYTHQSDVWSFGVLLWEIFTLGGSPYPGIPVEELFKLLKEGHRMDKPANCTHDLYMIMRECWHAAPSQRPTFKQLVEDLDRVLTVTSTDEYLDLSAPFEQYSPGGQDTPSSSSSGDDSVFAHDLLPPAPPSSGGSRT
Chain of Vascular endothelial growth factor receptor 2 (P35968 whole entry): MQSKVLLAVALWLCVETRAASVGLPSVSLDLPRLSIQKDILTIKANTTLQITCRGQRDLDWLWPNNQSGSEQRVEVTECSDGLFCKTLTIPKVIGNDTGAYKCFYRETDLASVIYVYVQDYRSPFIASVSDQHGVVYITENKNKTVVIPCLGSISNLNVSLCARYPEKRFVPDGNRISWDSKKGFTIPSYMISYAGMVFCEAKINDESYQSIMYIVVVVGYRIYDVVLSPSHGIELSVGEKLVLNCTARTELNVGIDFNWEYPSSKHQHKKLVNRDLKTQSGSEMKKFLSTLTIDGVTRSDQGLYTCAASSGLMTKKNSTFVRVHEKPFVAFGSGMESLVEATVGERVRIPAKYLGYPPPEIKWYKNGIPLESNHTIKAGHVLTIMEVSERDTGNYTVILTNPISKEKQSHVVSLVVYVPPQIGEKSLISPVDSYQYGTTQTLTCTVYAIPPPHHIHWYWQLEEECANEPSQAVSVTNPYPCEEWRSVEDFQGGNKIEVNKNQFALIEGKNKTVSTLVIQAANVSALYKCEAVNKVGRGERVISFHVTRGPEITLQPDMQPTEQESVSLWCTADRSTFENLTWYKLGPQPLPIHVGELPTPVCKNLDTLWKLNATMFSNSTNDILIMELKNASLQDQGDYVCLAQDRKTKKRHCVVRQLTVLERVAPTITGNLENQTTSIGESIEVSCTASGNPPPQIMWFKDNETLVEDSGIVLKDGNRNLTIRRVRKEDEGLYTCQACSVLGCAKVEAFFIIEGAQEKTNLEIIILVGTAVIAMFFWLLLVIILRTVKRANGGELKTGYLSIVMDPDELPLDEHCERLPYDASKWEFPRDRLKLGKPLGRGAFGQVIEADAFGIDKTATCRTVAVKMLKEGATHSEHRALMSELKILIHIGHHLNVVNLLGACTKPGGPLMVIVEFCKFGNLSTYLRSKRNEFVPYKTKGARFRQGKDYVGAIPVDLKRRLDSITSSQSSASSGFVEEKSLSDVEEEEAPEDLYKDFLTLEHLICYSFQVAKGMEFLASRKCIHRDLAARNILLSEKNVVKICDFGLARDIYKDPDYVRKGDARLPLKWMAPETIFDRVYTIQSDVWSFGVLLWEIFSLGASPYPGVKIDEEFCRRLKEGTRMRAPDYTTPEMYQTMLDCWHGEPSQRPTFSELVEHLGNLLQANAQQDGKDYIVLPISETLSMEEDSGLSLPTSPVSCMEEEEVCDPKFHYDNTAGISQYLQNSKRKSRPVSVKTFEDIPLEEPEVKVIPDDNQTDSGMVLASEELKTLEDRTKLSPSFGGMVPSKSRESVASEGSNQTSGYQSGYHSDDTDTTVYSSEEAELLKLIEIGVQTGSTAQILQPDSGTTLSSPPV

With `Nc1ccc2nccnc2c1`, the IC50 in assay [1] came out at 140 µM; in assay [2], 120 µM.

In the case of `Cn1cc(-c2cnc3ccc(Cl)cc3n2)cn1`, the concentration for half-maximal inhibition (IC50) in assay [1] stood at 0.46 µM; in assay [2], 6.5 µM.

`COc1ccc(CNc2ccc3ncc(-c4cnn(C)c4)nc3c2)c(OC)c1`: the IC50 in assay [1] was found to be 5.5 µM; in assay [2], 0.33 µM. In addition, the Ratio IC50 in the assay listed under Homo sapiens was 15.

On to `COc1cc(Nc2ccc3ncc(-c4cnn(C)c4)nc3c2)cc(OC)c1`, for which the IC50 in assay [1] is 0.56 µM; in assay [2], 0.012 µM.
